This is an account of results in patent US20120208873A1, “TEA POLYPHENOLS PRODUCTS FOR CEASING SMOKING AND TREATING AND/OR PREVENTING NICOTINE OR NICOTINE-DERIVED COMPOUNDS OR ESTROGEN INDUCED BREAST CANCER” (priority 2011, published 2012).

The subject of assay [1] is p53. Kind of assay: ChIP assay of p53 binding to the α9-nAChR promoter in MCF-7 cells. It counts as cell-based, human. Conditions: EGCG 10 μM pretreatment, Nic 10 μM.
The subject of assay [2] is p-AKT (Ser^473). Nature of the assay: phosphorylated AKT by immunoblotting in MCF-7 cells. Type of assay: cell-based, human. As to conditions: EGCG 10 μM 24 h pretreatment, then Nic 10 μM or E2 10 nM 24 h. The method, then: (§1) To prepare protein samples, cells were washed once with ice-cold PBS and lysed on ice in cell lysis buffer (50 mM Tris-HCl, pH 8.0, 120 mM […], 0.5% Nonidet P-40, 100 mM sodium fluoride, and 200 μM sodium orthovanadate) containing protease inhibitors as described previously (Shih, Y. L., Liu, H. C., Chen, C. S., Hsu, C. H. et al., J. Agric. Food Chem. 2010, 58, 235-241). Protein (50 μg) from each sample was resolved by 12% SDS-polyacrylamide gel electrophoresis, transferred, and analyzed by Western blotting. Antibodies were purchased from the following vendors: anti-total AKT and protein A/G agarose beads were obtained from Santa Cruz Biotechnology (Santa Cruz, Calif., USA); anti-GAPDH and anti-α9-nAChR antibodies were from Abcam (Cambridge, UK); antiphospho AKT (Ser^473), anti-c-Jun, and anti-c-Fos were from Cell Signaling Technology (Beverly, Mass., USA). The secondary antibodies, alkaline phosphatase-coupled anti-mouse, and anti-rabbit IgG were purchased from Santa Cruz Biotechnology. The specific protein complexes were identified with the chromogenic substrates nitro blue tetrazolium, and 5-bromo-4-chloro-3-indolyl-phosphate from KPL (Gaithersburg, Md., USA). In each experiment, proteins were also probed with anti-GAPDH antibodies as a protein-loading control.
Background: Immunoblotting shows a protein as a band on a membrane.

Assay [3] has as its system α9-nAChR protein. Nature of the assay: α9-nAChR protein levels by immunoblotting in MCF-7 cells. It counts as cell-based, human. As to conditions: MCF-7. How it is done: (§2) Human mammary gland epithelial adenocarcinomas (MCF7, MDA-MB-231, AU-565, MDA-MB-453, and BT-483) and normal human mammary gland epithelial fibrocystic cell lines (MCF-10A and HBL-100) were purchased from ATCC (American Type Culture Collection, Manassas, Va., USA). MCF-7, MDA-MB-231, and MDA-MB-453 cells were maintained in DMEM, whereas BT-483 cells were maintained in RPMI-1640. Cell growth, proliferation, and viability were determined by the 3-(4,5-dimethylthiazol-2-yl)-2,5-diphenyltetrazolium (MTT) assay. The formazan product was measured by absorbance at 540 nm.
as §1

For assay [4], the system named is MCF-7 cells. Kind of assay: Soft agar cloning assay (colony formation) of MCF-7 cells. It counts as cell-based, human. Conditions: EGCG 10 μM, Nic 10 μM. How it is done: The base layer consisted of 0.9% low gelling point SeaPlaque agarose (Sigma, St. Louis, Mo., USA) in culture medium (Shih, Y. L., Liu, H. C., Chen, C. S., Hsu, C. H. et al., J. Agric. Food Chem. 2010, 58, 235-241). Soft agar, consisting of 0.4% SeaPlaque agarose in culture medium, was mixed with 1×10^4 MCF-7 cells and plated on top of the base layer in 60-mm diameter culture dishes. Soft agar cultures were maintained at 37° C. and counted for the appearance of colonies with a Leica DMI 4000B Microscope Imaging System (Leica Microsystems, Wetzlar, Germany).

Assay [5] deals with AP-1. Kind of assay: ChIP assay of AP-1 binding to the α9-nAChR promoter in MCF-7 cells. It counts as cell-based, human. Conditions: EGCG 10 μM 24 h pretreatment, Nic 10 μM. The method, then:
Chromatin immunoprecipitation (ChIP) assays of cultured cells were performed as described previously (Chen, C. S., Lee, C. H., Hsieh, C. D., Ho, C. T. et al., Breast Cancer Res. Treat. 2010; Shih, Y. L., Liu, H. C., Chen, C. S., Hsu, C. H. et al., J. Agric. Food Chem. 2010, 58, 235-241). Briefly, after various regimens of Nic treatment, the cells were fixed with a final concentration of 1% formaldehyde directly added to the cell culture medium at 25° C. for 15 min. The crosslinking reaction was terminated with 0.125 M glycine for 5 min, and the cells were collected into a new Eppendorf tube. The cell lysate was sonicated three times with 10 s bursts to yield input DNA enriched for fragments around 1000 bp in size. A c-Jun (AP-1) antibody (Santa Cruz Biotechnology) was used for the immunoprecipitation reactions. Primers, which detect the a9-nAChR promoter regions, amplified a region from −960 to −1 for 32 cycles (forward: 5′-ATGCAATG CAAGCCTGAGCT-3′ (SEQ ID NO:2) and reverse: 5′-TATA-[…]-3′ (SEQ ID NO:3)). The PCR products were then separated and analyzed by agarose gel electrophoresis.

In assay [6] the target is T1, α9-nAChR (Homo sapiens, UniProt Q9UGM1).
T1 construct: breast cancer cell proliferation induced by Nic could be mediated through endogenous α9-nAChR; endogenous in cells; host or cells: MCF-7 cell monolayers: wild type, scramble control (Sc) and α9-nAChR siRNA knockdown (Si) clones
Kind of assay: [^3H]-Nic equilibrium binding in MCF-7 cells. How it is done:
L-(−)-[N-methyl-^3H]-Nic ([^3[H]-Nic) (71-75 Ci/mmol) was purchased from Dupont/NEN Research Products (Boston, Mass., USA), and free-base Nic (99% pure) was purchased from The Eastman Kodak (Rochester, N.Y., USA). To study the uptake of [^3H]-Nic in MCF-7 cell monolayers (2×10^6 cells/well), cells were rinsed three times with a buffer containing 140 mM NaCl, 5.4 mM KCl, 1.8 mM CaCl2, 0.8 mM Mg504, 5 mM glucose, and 25 mM Hepes/Tris (pH 7.4). […] Nonspecific binding was determined by the addition of […] Nic. Total binding was evaluated for each concentration in quintuplicate, and blanks were determined in triplicate. The uptake of [^3H]-Nic was halted by aspiration of the uptake medium and washing of the wells three times with ice-cold buffer. The cells were lysed in 1 mL of 0.5% Triton X-100, and aliquots of the cell lysates were transferred to scintillation vials to determine the incorporated radioactivity by scintillation counting. Inhibition studies were carried out by adding various concentrations of unlabeled compounds to the uptake medium.

In assay [7] the test system is MCF-7 cells. Kind of assay: Cell proliferation (MTT assay) in MCF-7 cells. It counts as cell-based, human. The method, then: as §2
On the technique in general: Tetrazolium assays rely on reduction of a dye to a coloured formazan, in cell work by metabolically active cells.

In assay [8] the test system is MCF-10A cells. Kind of assay: Cell proliferation (MTT assay) in normal MCF-10A cells. Type of assay: cell-based, human. As to conditions: Nic 10 μM or EGCG 10-25 μM. The method, then:
as §2

Molecules are shown by their SMILES. “Also recorded” adds a separate entry of the source.

T1 sequence (Q9UGM1 26-479 limits assumed): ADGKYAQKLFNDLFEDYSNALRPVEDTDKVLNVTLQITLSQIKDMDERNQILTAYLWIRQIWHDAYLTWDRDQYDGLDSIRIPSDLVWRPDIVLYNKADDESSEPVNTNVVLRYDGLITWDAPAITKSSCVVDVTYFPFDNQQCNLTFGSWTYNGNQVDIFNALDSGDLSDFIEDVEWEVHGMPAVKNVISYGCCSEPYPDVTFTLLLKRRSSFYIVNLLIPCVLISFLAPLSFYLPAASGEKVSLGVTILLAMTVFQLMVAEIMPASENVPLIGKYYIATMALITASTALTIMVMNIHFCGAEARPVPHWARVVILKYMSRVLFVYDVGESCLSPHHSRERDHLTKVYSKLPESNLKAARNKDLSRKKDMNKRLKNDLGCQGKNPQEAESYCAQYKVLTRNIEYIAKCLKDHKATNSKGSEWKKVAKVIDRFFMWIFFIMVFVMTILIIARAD

In the case of `O=C(O[C@@H]1Cc2c(O)cc(O)cc2O[C@@H]1c1cc(O)c(O)c(O)c1)c1cc(O)c(O)c(O)c1` [EGCG, (−)-epigallocatechin-3-gallate], in assay [1], the “p53 binding to the α9-nAChR promoter (−125 to 0)” value was “not affected”. Further, the “pAKT protein expression induced by either E2 or Nic” value in assay [2] is “significantly inhibited”. Moreover, the “Nic- and E2-induced upregulation of α9-nAChR protein after inhibitor pretreatment” value in assay [3] (24 h pretreatment (LY294002 25 μM or EGCG 10 μM), then Nic 10 μM or E2 10 nM 24 h) is recorded as “almost completely inhibited; also recorded: significantly inhibited”. For the same compound, the “α9-nAChR protein in Nic-treated cells” value in assay [3] (EGCG 1 μM with Nic 10 μM, 24 h) was “downregulated”. Moreover, the “α9-nAChR protein expression induced by either Nic or E2” value in assay [3] (Nic 10 μM or E2 10 nM in presence of EGCG 1-10 μM, 24 h) is listed as “significantly inhibited”. Besides, in assay [4], the “colony formation in α9-nAChR (Si) cells compared with (Sc) cells” value is reported as “profoundly inhibited”. In addition, the “formation of transformed colonies compared with Nic-treated cells” value in assay [4] (MCF-7) is reported as “significantly inhibits”. Moreover, the “Nic-induced AP-1 binding to the α9-nAChR promoter” value in assay [5] is “attenuated”. For the same compound, in assay [6] (EGCG 10 μM 24 h pretreatment), the “[^3H]-Nic binding activity in α9-nAChR (Si) cells compared with Sc or wild-type cells” value is “profoundly inhibited”. Further, in assay [6] (EGCG pretreatment), the “inhibition of [^3H]-Nic binding activity in (Si) cells compared with Sc or wild-type cells” value is reported as greater than 90%. The “[^3H]-Nic binding activity, EGCG pretreated then washed group” value in assay [6] (MCF-7, EGCG 24 h, wash, then [^3H]-Nic 24 h) is listed as “not significantly inhibited”. Also, the “[^3H]-Nic binding activity, EGCG cotreated group” value in assay [6] (MCF-7, [^3H]-Nic + EGCG cotreatment 24 h) is recorded as “not significantly inhibited”. Also, the “relative [^3H]-Nic binding activity, EGCG pretreated group” value in assay [6] (wild-type MCF-7, EGCG 10 μM 24 h, then [^3H]-Nic cotreatment 24 h) is recorded as “significantly blocked; also recorded: profoundly inhibited”. Besides, the “Nic-induced cellular proliferation effects in (C) and (Sc) cells” value in assay [7] (EGCG 10 μM, 24 h pretreatment, then Nic 10 μM 24 h) is given as “reversed”. For the same compound, the Nic-stimulated proliferation entry in assay [7] (MCF-7, EGCG 10-25 μM, 24 h pretreatment, dose-dependent) was “blocked”. For the same compound, in assay [7] (combined treatment with EGCG 10 μM and Nic 10 μM), the “cell proliferation in Nic-treated α9-nAChR (Si) cells compared with Sc cells” value was “profoundly inhibited”. Moreover, in assay [8], the “cell number in normal breast epithelial cells” value is on record as “no changes”.
